Key:
participants with SSc-RP [1] = test: SHAQ Alternative Disability Index; assay type: in vivo, human; conditions: Tadalafil 5 mg; Modified ITT, Part A
Excerpt: The standard, validated, patient reported outcome measures tool for SSc patients, the Scleroderma Health Assessment Questionnaire (SHAQ), will be used to assess the participant qualify of life. Details are attached in the Appendix. The participant quality of life will be scored, and a disability index calculated for each questionnaire completed by the patient at Screening and each in-clinic visit. The absolute change in participant quality of life from baseline to the end of each dosing period will be calculated similar to frequency data as before.
The SHAQ is used to calculate a Disability Index to assess the participant qualify of life. The eight categories assessed by the Disability Index are 1) dressing and grooming, 2) arising, 3) eating, 4) walking, 5) hygiene, 6) reach, 7) grip, and 8) common daily activities. For each of these categories, patients report the amount of difficulty they have in performing two or three specific activities.
There are four possible responses for the Disability Index questions: • Without any difficulty=0 • With some difficulty=1 • With much difficulty=2 • Unable to do=3 • The highest score reported by the patient for any component question of the eight categories determines the score for that category. • If a component question is left blank or the response is too ambiguous to assign a score, then the score for that category is determined by the remaining completed question(s). • If all component questions are blank or if more than one answer is given, then follow up with the respondent is required. • If the respondent's mark is between the response columns, then move it to the closest one. If it's directly between the two, move it to the higher one.
The scoring variables and scoring rules permit the computation of two disability indices, the Standard Disability Index and the Alternative Disability Index.
The aid and device variables are not used to calculate the alternative disability index; it is calculated by adding the scores for each of the categories and dividing by the number of categories answered. This gives a score in the 0 to 3 range.

participants with SSc-RP [2] = test: Frequency of weekly symptomatic RP attacks (patient diary), Phase 2a Part A; assay type: in vivo, human; conditions: ITT Part A
Procedure: Part A—Double-blind, Placebo-controlled, Parallel-group, Dose selection, will assess the safety and efficacy of two doses of cilnidipine (10 mg and 20 mg), alone and in combination with tadalafil. A total of 36 participants will be randomized to one of six pre-specified treatment arms. See Example 3 for data obtained in this phase of the study thus far, on 11 participants.
Please refer to FIG. 1 for treatment arms in Part A of the study. Dosing lasted or will last for 12 (±2) days in which participants self-administered or will self-administer daily doses of assigned treatment in the morning. Each participant took or will take one capsule and one tablet to blind the active therapy being received.
The relevant metrics measured by this tool daily are: • Study medication • SSc-RP symptoms (Reporting an attack including duration of attack) • Severity of the attack considering all symptoms of the attack e.g. tingling, numbness, pain, color changes (VAS 0-10 cm scale) • Participant's location at the time of the attack (inside home/outside home) • Selecting symptoms experienced during the attack (tingling, numbness, pain, color changes, other) • Pain rating during the attack (11-point Likert scale) • The RCS based on how much difficulty participants had with Raynaud's today, how many attacks the participant had, and how long they lasted. Participants will also be asked to consider how much pain, numbness, or other symptoms the Raynaud's caused in fingers (including painful sores), and how much the Raynaud's alone affected the use of hands today (VAS 0-10 cm scale).
Percent change from baseline evaluation for frequency of weekly RP attacks were or will be used as the primary efficacy variable. The sponsor-developed participant-informed diary will be used to record data. Frequency of weekly RP attacks is defined as the total number of RP attacks divided by the number of days with available diary data within the last 7 days of each dosing period then multiplied by 7. Total number of RP attacks during the last 7 days of screening period divided by the number of days with available data then multiplied by 7 will be used as baseline for the analysis of all periods.
Percentage change={(weekly RP attacks for the last 7 days of each dosing period−Baseline weekly RP attacks)/Baseline weekly RP attacks}*100%.
Absolute change=weekly RP attacks for the last 7 days of each dosing period−Baseline weekly RP attacks
Percent change from baseline evaluation for frequency of weekly RP attacks was and will be the primary efficacy endpoint. Frequency of weekly RP attacks is defined as the total number of RP attacks divided by the number of days with available diary data within the last 7 days of each dosing period then multiplied by 7. Total number of RP attacks during the last 7 days of screening period divided by the number of days with available data then multiplied by 7 will be used as baseline for the analysis of all periods.
The following data was actually obtained in accordance with the protocol and plan delineated in Examples 1 and 2. The accompanying data involved 11 patients out of the planned 76 patient study. The study was done in patients with scleroderma (systemic sclerosis) who had relatively frequent Raynaud symptoms as they needed to average at least one attack per day during a screening period of up to two weeks. In this first phase of this double-blind placebo-controlled, prospective randomized study, patients were treated in parallel and after meeting study criteria were randomized to receive either placebo, cilnidipine 10 mg daily, cilnidipine 20 mg daily, tadalafil 5 mg daily, cilnidipine 10 mg plus 5 mg of tadalafil, or cilnidipine 20 mg plus 5 mg of tadalafil.

[3] = Table A-1, last 7 days of dosing period
[4] = Table A-1, last 7 days of dosing vs last 7 days of screening
[5] = Table A-2, excluding outliers, last 7 days of dosing period
[6] = Table A-3 by baseline RCS, second sub-table (heading not given; RCS >5.0)

In the case of `CN1CC(=O)N2[C@H](c3ccc4c(c3)OCO4)c3[nH]c4ccccc4c3C[C@@H]2C1=O` [Tadalafil], the “Alternative disability index, Baseline, Mean” value (participants with SSc-RP [1]) is reported as 0.688, the “Alternative disability index, Change from Baseline, Mean” value (participants with SSc-RP [1]) is reported as −0.071 and the “Alternative disability index, Change from Baseline, Median” value (participants with SSc-RP [1]) is reported as −0.063. The “Alternative disability index, In Clinic Visit (Day 12), Mean” value (participants with SSc-RP [1]) was 0.616, the “Alternative disability index, In Clinic Visit (Day 12), Median” value (participants with SSc-RP [1]) was 0.482 and the “Alternative disability index, Percent Change from Baseline, Mean” value (participants with SSc-RP [1]) was 21.25%. For the same molecule, the “Alternative disability index, Percent Change from Baseline, Median” value (participants with SSc-RP [1]) was −7.69%, the “Weekly Symptomatic RP Attacks, Min” value (participants with SSc-RP [2]; [3]) was 7.0 and the “Weekly Symptomatic RP Attacks, Q1” value (participants with SSc-RP [2]; [3]) was 7.00. For the same molecule, the “Weekly Symptomatic RP Attacks Change from Baseline, Mean (SD)” value (participants with SSc-RP [2]; [4]) was 4.50 (2.121), the “Weekly Symptomatic RP Attacks Change from Baseline, Median” value (participants with SSc-RP [2]; [4]) was 4.50 and the “Weekly Symptomatic RP Attacks Change from Baseline, Min” value (participants with SSc-RP [2]; [4]) was 3.0. For the same molecule, the “Weekly Symptomatic RP Attacks Change from Baseline, Q1” value (participants with SSc-RP [2]; [4]) was 3.00, the “Weekly Symptomatic RP Attacks Percent Change from Baseline, Max” value (participants with SSc-RP [2]; [4]) was 75.0% and the “Weekly Symptomatic RP Attacks Percent Change from Baseline, Q3” value (participants with SSc-RP [2]; [4]) was 75.00%. For the same molecule, the “Weekly Symptomatic RP Attacks Change from Baseline, Max” value (participants with SSc-RP [2]; Table A-2, excluding outliers) was 6.0, 6.0, the “Weekly Symptomatic RP Attacks Change from Baseline, Q3” value (participants with SSc-RP [2]; Table A-2, excluding outliers) was 6.00, 6.00 and the “Weekly Symptomatic RP Attacks Percent Change from Baseline, Min” value (participants with SSc-RP [2]; Table A-2, excluding outliers) was 50.0, 50.0%. The “Weekly Symptomatic RP Attacks Percent Change from Baseline, Q1” value (participants with SSc-RP [2]; Table A-2, excluding outliers) was 50.00, 50.00%, the “Weekly Symptomatic RP Attacks, Max” value (participants with SSc-RP [2]; [5]) was 18.0, 18.0 and the “Weekly Symptomatic RP Attacks, Q3” value (participants with SSc-RP [2]; [5]) was 18.00, 18.00. The “Weekly Symptomatic RP Attacks Change from Baseline, Max” value (participants with SSc-RP [2]; [6]) was 6.0, the “Weekly Symptomatic RP Attacks Change from Baseline, Min” value (participants with SSc-RP [2]; [6]) was 3.0 and the “Weekly Symptomatic RP Attacks Change from Baseline, Q1” value (participants with SSc-RP [2]; [6]) was 3.00. The “Weekly Symptomatic RP Attacks Change from Baseline, Q3” value (participants with SSc-RP [2]; [6]) was 6.00, the “Weekly Symptomatic RP Attacks Percent Change from Baseline, Max” value (participants with SSc-RP [2]; [6]) was 75.0% and the “Weekly Symptomatic RP Attacks Percent Change from Baseline, Min” value (participants with SSc-RP [2]; [6]) was 50.0%. For the same molecule, the “Weekly Symptomatic RP Attacks Percent Change from Baseline, Q1” value (participants with SSc-RP [2]; [6]) was 50.00%, the “Weekly Symptomatic RP Attacks Percent Change from Baseline, Q3” value (participants with SSc-RP [2]; [6]) was 75.00% and the “Weekly Symptomatic RP Attacks, Max” value (participants with SSc-RP [2]; [6]) was 18.0. For the same molecule, the “Weekly Symptomatic RP Attacks, Min” value (participants with SSc-RP [2]; [6]) was 7.0, the “Weekly Symptomatic RP Attacks, Q1” value (participants with SSc-RP [2]; [6]) was 7.00 and the “Weekly Symptomatic RP Attacks, Q3” value (participants with SSc-RP [2]; [6]) was 18.00.

Source: patent US20240398771A1, “TREATMENT OF SCLERODERMA AND RAYNAUD'S SYNDROME” (Aisa Pharma, Inc., priority 2023, published 2024)
